{"source": "paper PMC3172044", "about": "(Biopharmaceutics & drug disposition, 2010)", "key": {"[1]": {"conditions": "cited from earlier work"}, "[2]": {"test_system": "human liver microsomes"}, "[3]": {"test_system": "human liver microsomes", "assay": "Chemical inhibition of GLB metabolite formation in human liver microsomes", "conditions": "GLB 1.25 μM; for effect on the formation of any of the four metabolites (M1, M2b, M4, M5): SUL […], QUI 0.45 μM, TTEPA 20 μM"}, "[4]": {"conditions": "read-out: apparent Km values for GLB metabolism; cited from earlier work"}, "[5]": {"conditions": "cited from earlier work", "remark": "listed apart in the source"}, "[6]": {"test_system": "CYP3A", "conditions": "cited from earlier work"}, "[7]": {"test_system": "CYP2C19", "conditions": "cited from earlier work"}, "[8]": {"substrate": "COc1ccc(Cl)cc1C(=O)NCCc1ccc(S(=O)(=O)NC(=O)NC2CCCCC2)cc1", "assay": "cells, lysate or membranes named", "conditions": "substrate depletion, 37.0 °C"}, "[9]": {"conditions": "value stated to be within the range"}, "[10]": {"conditions": "1 μM ketoconazole, no inhibitor = 100%"}, "[11]": {"conditions": "4 μM montelukast, no inhibitor = 100%"}, "[12]": {"conditions": "other: CYP3A5 supersomes 30 pmol/ml"}, "[13]": {"conditions": "other: CYP2C8 supersomes 40 pmol/ml"}, "[14]": {"conditions": "other: CYP2C19 supersomes 30 pmol/ml"}}}
{"molecule": "COc1ccc(Cl)cc1C(=O)NCCc1ccc(S(=O)(=O)NC(=O)N[C@H]2CCC[C@@H](O)C2)cc1", "note": "(relative stereo) [M2b, 3-cis-hydroxycyclohexyl glyburide (axial)]", "values": [{"measurement": "pharmacological activity", "setting": "[1]", "result": "pharmacologically active"}, {"measurement": "peak area of metabolite as % of that of M5", "setting": "[2]", "result": "~43", "unit": "%"}]}
{"molecule": "COc1ccc(Cl)cc1C(=O)NCCc1ccc(S(=O)(=O)NC(=O)N[C@@H]2CCCC[C@H]2O)cc1", "note": "(relative stereo) [M4, 2-trans-hydroxycyclohexyl glyburide]", "values": [{"measurement": "peak area of metabolite as % of that of M5", "setting": "[2]", "result": "~8", "unit": "%"}]}
{"molecule": "COc1ccc(Cl)cc1C(=O)NCCc1ccc(S(=O)(=O)NC(=O)N[C@H]2CC[C@H](O)CC2)cc1", "note": "[M1, 4-trans-hydroxycyclohexyl glyburide]", "values": [{"measurement": "pharmacological activity", "setting": "[1]", "result": "pharmacologically active"}, {"measurement": "peak area of metabolite as % of that of M5", "setting": "[2]", "result": "approximately 56%"}]}
{"molecule": "COc1ccc(Cl)cc1C(=O)NCCc1ccc(S(=O)(=O)NC(=O)NC2CCCC(O)C2)cc1", "note": "(stereo not drawn) [M3, 3-trans-hydroxycyclohexyl glyburide]", "values": [{"measurement": "peak area of metabolite as % of that of M5", "setting": "[2]", "result": "~16", "unit": "%"}]}
{"molecule": "Nc1ccc(S(=O)(=O)Nc2ccnn2-c2ccccc2)cc1", "note": "[Sulfaphenazole, sulfaphenazole]", "values": [{"measurement": "effect on the formation of any of the four metabolites (M1, M2b, M4, M5)", "setting": "[3]", "result": "no significant effects"}]}
{"molecule": "COc1ccc(Cl)cc1C(=O)NCCc1ccc(S(=O)(=O)NC(=O)NC2CCCCC2)cc1", "note": "[glyburide, Glyburide]", "values": [{"measurement": "Km", "setting": "[4]", "result": "5 to 11", "unit": "µM"}, {"measurement": "peak plasma concentration", "setting": "[5]; after a single oral dose of 20 mg GLB", "result": "approximately 1.25 μM"}, {"measurement": "free therapeutic plasma concentration", "setting": "[5]; [9]", "result": "approximately 1.25 nM"}, {"measurement": "total therapeutic plasma concentration", "setting": "[5]; [9]", "result": "~0.125", "unit": "µM"}]}
{"molecule": "CC(=O)N1CCN(c2ccc(OCC3COC(Cn4ccnc4)(c4ccc(Cl)cc4Cl)O3)cc2)CC1", "note": "(stereo not drawn) [ketoconazole]", "values": [{"measurement": "formation of M1, % of the controls", "setting": "[3]; [10]", "result": "approximately 60%"}, {"measurement": "formation of M4, % of the controls", "setting": "[3]; [10]", "result": "~5", "unit": "%"}, {"measurement": "formation of M5, % of the controls", "setting": "[3]; [10]", "result": "~4", "unit": "%"}, {"measurement": "Ki", "setting": "[6]", "result": "[…]"}]}
{"molecule": "CC(C)(O)c1ccccc1CC[C@@H](SCC1(CC(=O)O)CC1)c1cccc(/C=C/c2ccc3ccc(Cl)cc3n2)c1", "note": "[montelukast]", "values": [{"measurement": "formation of M1, % of the controls", "setting": "[3]; [11]", "result": "approximately 50%"}, {"measurement": "formation of M4, % of the controls", "setting": "[3]; [11]", "result": "~65", "unit": "%"}]}
{"molecule": "COc1ccc2[nH]c([S+]([O-])Cc3ncc(C)c(OC)c3C)nc2c1", "note": "(stereo not drawn) [omeprazole]", "values": [{"measurement": "Ki", "setting": "[7]", "result": 3000, "unit": "nM"}]}
{"molecule": "C=C[C@H]1C[N@@]2CC[C@H]1C[C@@H]2[C@@H](O)c1ccnc2ccc(OC)cc12", "note": "[quinidine]", "values": [{"measurement": "effect on the formation of any of the four metabolites (M1, M2b, M4, M5)", "setting": "[3]", "result": "no significant effects"}]}
{"molecule": "S=P(N1CC1)(N1CC1)N1CC1", "note": "[thioTEPA, triethylenethiophosphoramide]", "values": [{"measurement": "effect on the formation of any of the four metabolites (M1, M2b, M4, M5)", "setting": "[3]", "result": "no significant effects"}]}
{"molecule": "an ethyl hydroxycyclohexyl glyburide [M5]", "values": [{"measurement": "relative metabolite formation in human liver microsome incubations", "setting": "[2]", "result": "major metabolite formed"}]}
{"molecule": "human CYP3A5 (Homo sapiens) (protein) MDLIPNLAVETWLLLAVSLVLLYLYGTRTHGLFKRLGIPGPTPLPLLGNVLSYRQGLWKFDTECYKKYGKMWGTYEGQLPVLAITDPDVIRTVLVKECYSVFTNRRSLGPVGFMKSAISLAEDEEWKRIRSLLSPTFTSGKLKEMFPIIAQYGDVLVRNLRREAEKGKPVTLKDIFGAYSMDVITGTSFGVNIDSLNNPQDPFVESTKKFLKFGFLDPLFLSIILFPFLTPVFEALNVSLFPKDTINFLSKSVNRMKKSRLNDKQKHRLDFLQLMIDSQNSKETESHKALSDLELAAQSIIFIFAGYETTSSVLSFTLYELATHPDVQQKLQKEIDAVLPNKAPPTYDAVVQMEYLDMVVNETLRLFPVAIRLERTCKKDVEINGVFIPKGSMVVIPTYALHHDPKYWTEPEEFRPERFSKKKDSIDPYIYTPFGTGPRNCIGMRFALMNMKLALIRVLQNFSFKPCKETQIPLKLDTQGLLQPEKPIVLKVDSRDGTLSGE", "values": [{"measurement": "Km", "setting": "[8]; [12]", "result": "4.2 ± 1.5", "unit": "µM"}, {"measurement": "kcat", "setting": "[8]; [12]", "result": "0.0317 ± 0.0122", "unit": "s⁻¹"}, {"measurement": "kcat/Km", "setting": "[8]; [12]", "result": "7670 ± 833", "unit": "M⁻¹ s⁻¹"}]}
{"molecule": "human CYP2C8 (Homo sapiens) (protein) MEPFVVLVLCLSFMLLFSLWRQSCRRRKLPPGPTPLPIIGNMLQIDVKDICKSFTNFSKVYGPVFTVYFGMNPIVVFHGYEAVKEALIDNGEEFSGRGNSPISQRITKGLGIISSNGKRWKEIRRFSLTTLRNFGMGKRSIEDRVQEEAHCLVEELRKTKASPCDPTFILGCAPCNVICSVVFQKRFDYKDQNFLTLMKRFNENFRILNSPWIQVCNNFPLLIDCFPGTHNKVLKNVALTRSYIREKVKEHQASLDVNNPRDFIDCFLIKMEQEKDNQKSEFNIENLVGTVADLFVAGTETTSTTLRYGLLLLLKHPEVTAKVQEEIDHVIGRHRSPCMQDRSHMPYTDAVVHEIQRYSDLVPTGVPHAVTTDTKFRNYLIPKGTTIMALLTSVLHDDKEFPNPNIFDPGHFLDKNGNFKKSDYFMPFSAGKRICAGEGLARMELFLFLTTILQNFNLKSVDDLKNLNTTAVTKGIVSLPPSYQICFIPV", "values": [{"measurement": "Km", "setting": "[8]; [13]", "result": "7.7 ± 2.3", "unit": "µM"}, {"measurement": "kcat", "setting": "[8]; [13]", "result": "0.0417 ± 0.0133", "unit": "s⁻¹"}, {"measurement": "kcat/Km", "setting": "[8]; [13]", "result": "5330 ± 500", "unit": "M⁻¹ s⁻¹"}]}
{"molecule": "human CYP2C19 (Homo sapiens) (protein) MDPFVVLVLCLSCLLLLSIWRQSSGRGKLPPGPTPLPVIGNILQIDIKDVSKSLTNLSKIYGPVFTLYFGLERMVVLHGYEVVKEALIDLGEEFSGRGHFPLAERANRGFGIVFSNGKRWKEIRRFSLMTLRNFGMGKRSIEDRVQEEARCLVEELRKTKASPCDPTFILGCAPCNVICSIIFQKRFDYKDQQFLNLMEKLNENIRIVSTPWIQICNNFPTIIDYFPGTHNKLLKNLAFMESDILEKVKEHQESMDINNPRDFIDCFLIKMEKEKQNQQSEFTIENLVITAADLLGAGTETTSTTLRYALLLLLKHPEVTAKVQEEIERVIGRNRSPCMQDRGHMPYTDAVVHEVQRYIDLIPTSLPHAVTCDVKFRNYLIPKGTTILTSLTSVLHDNKEFPNPEMFDPRHFLDEGGNFKKSNYFMPFSAGKRICVGEGLARMELFLFLTFILQNFNLKSLIDPKDLDTTPVVNGFASVPPFYQLCFIPV", "values": [{"measurement": "Km", "setting": "[8]; [14]", "result": "15.1 ± 2.3", "unit": "µM"}, {"measurement": "kcat", "setting": "[8]; [14]", "result": "0.16 ± 0.025", "unit": "s⁻¹"}, {"measurement": "kcat/Km", "setting": "[8]; [14]", "result": "10500 ± 333", "unit": "M⁻¹ s⁻¹"}]}
